# Data: patent US12616753B2, “HSP70 inhibitors and methods of using same” (THE WISTAR INSTITUTE, priority 2020, dated 2026)
# Key:
# [1] = system: MRPS14, NDUFA6, EGFR, AKT, mutant p53; test: Western blot of HSP70 client proteins in human tumor cell lines; type: cell-based
# Procedure: Proteins were identified using False Discovery Rate (FDR) values less than 10% and p values less than 0.05. FIG. 3C: Three different melanoma cell lines (WM983B, WM4265, and 1205Lu) were treated with the indicated concentrations of AP-4-139B for 24 hours. Cell lysates were subjected to Western blot analysis, and immunoblotted for NDUFA6, MRPS14, and GAPDH (loading control). FIGS. 3D-3E: HT-29 (FIG. 3D) and LS411N (FIG. 3E) CRC cell lines were treated with the indicated concentrations of PET-16 or AP-4-139B for 48 hours. Cell lysates were subjected to Western blot analysis, and immunoblotted for EGFR, MRPS14, AKT, Cleaved Lamin A (CLA), Cleaved Caspase 3 (CC3), HSP70, HSP90 and GAPDH (loading control). FIG. 3F: HT-29 cells were treated with the indicated concentration of AP-4-139B, Gamitrinib (G-TPP), or VY-3-277 (negative control) for 48 hours. Cell lysates were subjected to Western blot analysis, and immunoblotted for HSP90, AKT, p53, and MRPS14.
# Cell lysates were subjected to Western blot analysis, and immunoblotted for MRPS14, NDUFA6, BAK, COXIV, and GAPDH (loading control).
# Antibodies used were purchased from: p53 (Ab-6) (DO-1, Millipore Sigma), p53 (1C12) (2524S), Cleaved Caspase 3 (9661S), Cleaved Lamin A (2035S), HSP90 (4877S), EGFR (4267S), HMGB1 (6893S), HSP70 (4873S), AKT (9272S), and GAPDH (2218S) (Cell Signaling, Danvers, MA, USA), MRPS14 (ab151118) (Abcam, Cambridge, MA, USA), NDUFA6 (GTX65550) (GeneTex, Irvine, CA, USA), BAK (H-211, sc-7873; Santa Cruz Biotechnology, Inc., Dallas, TX, USA), and HSP70 (C92F3A-5) (Enzo Life Sciences, Farmingdale, NY, USA). 17-AAG (Item No. 11039) and Metformin (Item No. 13118) were purchased from Cayman Chemical (Ann Arbor, MI, USA). Gamitrinib (G-TPP, HY-102007A) was purchased from MedChemExpress (Monmouth Junction, NJ, USA). All HSP70 inhibitors used were generated and confirmed by NMR. PLX-4720 was purchased from Chemietek (Catalog No. CT-P4720; Indianapolis, IN, USA). For in vitro studies, AP-4-139B was dissolved in DMSO. […]
# MC38 cells = test: In vivo metastasis assay (tail vein injection, C57Bl/6 mice); design: species or system mouse; conditions: 10 mg/kg every 48 hours, 3 weeks
# Procedure: FIG. 24A: MC38 cells were subjected to invasion assays using BioCoat Matrigel transwells in the presence of the indicated concentrations of AP-4-139B. 24 hours later, cells were fixed and stained with Crystal Violet. Shown are representative images taken from 8 random fields of view per well. Scale bar=100 μm. FIG. 24B: Quantification of FIG. 24A *** p<0.001. FIG. 24C: Schematic representation of the metastasis assay. 4×10^5 MC38 cells were injected into the tail vein of 8-10 week old male C57Bl/6 mice. Mice were treated with i.p. injection of 10 mg/kg AP-4-139B every 48 hours. After 3 weeks, the lungs of mice were formalin fixed and H&E stained, and assessed for the presence of metastatic nodules. […] FIG. 24E: Quantification of FIG. 24D. n=5 mice per group. * p<0.05.
# For in vivo metastasis assays, 8-10 week old male C57Bl/6 mice were injected with 4×10^5 MC38 cells. […] At the end of the study, mice were euthanized, lungs were harvested and fixed in formalin for analysis of lung tumor nodules by H&E. For anti-tumor vaccination studies, MC38 cells were treated with 10 μM AP-4-139B for 48 h, resulting in approximately 20% cell death (as assessed by Trypan Blue staining). […] Ten days later, mice were challenged on the right flank with 5×10^5 live MC38 cells, and tumor growth and incidence were monitored 3 times per week. […]
# mutant p53 and MRPS14 = test: Western blot in mouse CRC cell lines; type: cell-based; conditions: 10 μM, 24 or 48 hours
# Procedure: FIGS. 5A-5F show AP-4-139B is efficacious against CRC in an immunocompetent model, and causes immune cell recruitment. FIGS. 5A-5B: Mouse CRC cell lines, MC38 (FIG. 5A) and CT26 (FIG. 5B), were plated at a density of 1,000 cells per well in 96-well plates. The next day, cells were treated with the indicated inhibitors for 72 hours. Cells were then subjected to the Alamar Blue cell viability assays. Shown are representative IC50 values of an average of six technical replicates and two biological replicates. FIG. 5C: Mouse CRC cell lines MC38 and CT26 were treated with 10 μM AP-4-139B for 24 or 48 hours and immunoblotted for HSP70, p53, AKT, Cleaved Lamin A (CLA), Cleaved Caspase 3, MRPS14, and GAPDH (loading control). The doublet detected for HSP70 is seen in other murine cell lines, and may represent a degradation product or post-translational modification. FIG. 5D: 1×10^6 MC38 cells were injected subcutaneously into the right flank of 6-8 week old male C57Bl/6 mice. Once tumors reached an approximate volume of 50 mm^3, mice were separated randomly into two groups: vehicle vs. AP-4-139B. Mice were treated with 10 mg/kg AP-4-139B every 48 hours. All mice were euthanized 20 days after the start of treatment. Tumor volumes were recorded using digital calipers and using the formula v=length×width^2×0.52. *** p<0.001. n=15 mice per group.
structure (smiles),measurement,setting,value
"c1ccc(-c2cn3nc(CCCCCC[P+](c4ccccc4)(c4ccccc4)c4ccccc4)sc3n2)cc1 [AP-4-139B, Triphenyl(6-(6-phenylimidazo[2,1-b][1,3,4]thiadiazol-2-yl)hexyl)phosphonium bromide]","level of HSP70/HSP90 client proteins EGFR, AKT, mutant p53","[1]; HT-29 and LS411N, 48 hours",decreased
same,level of BAK and CoxIV and other mitochondrial proteins,"[1]; colorectal cancer cell lines, IC50, 24 hours",unaffected
same,level of MRPS14 and NDUFA6,[1]; several tumor cell lines,significantly decreased level of MRPS14 and NDUFA6
same,number of tumor nodules in the lung,MC38 cells,markedly decreased number of tumor nodules in the lung
same,levels of mutant p53 and MRPS14 in MC38 cells,mutant p53 and MRPS14,decreased levels
